Consider two molecules from the NIST ThermoML archive (doi:10.1016/j.jct.2008.04.005).

A short description of this series: molar enthalpy of vaporization or sublimation. The conditions noted are these: 298.15 K, Liquid.

± gives the expanded uncertainty stated by the source.

For the molecule `Cc1ccc(C)s1` [2,5-dimethylthiophene], the molar enthalpy (Calvet microcalorimetry) was found to be 40.2 ± 1.8 kJ/mol.

On to `CC(=O)c1cc(C)sc1C` [3-acetyl-2,5-dimethylthiophene], for which the molar enthalpy (Vacuum drop calorimetry) amounted to 61.3 ± 2.6 kJ/mol.
